Measured values: ChEMBL document CHEMBL1151588, “1,2-diaminobenzimidazoles : Selective inhibitors of nitric oxide synthase derived from aminoguanidine” (Bioorg Med Chem Lett, 1995)

Tests used:
[1] = molecular target: T1, Nitric oxide synthase, inducible (Homo sapiens, UniProt P35228); assay: Tested to inhibit the conversion of [3H]-L-arginine to [3H]L-citrulline catalyzed by inducible NOS from human DLD-1 cells at concentration below 100 uM; No significant inhibition; type: cell-based
Nitric oxide synthase 3 [2] = molecular target: T2, Nitric oxide synthase 3 (Homo sapiens, UniProt P29474); assay: Tested to inhibit the conversion of [3H]L-arginine to [3H]L-citrulline catalyzed by endothelial NOS from human umbilical vein endothelial cells; No significant inhibition; type: cell-based; conditions: endothelial cell
T2 sequence (P29474 whole entry): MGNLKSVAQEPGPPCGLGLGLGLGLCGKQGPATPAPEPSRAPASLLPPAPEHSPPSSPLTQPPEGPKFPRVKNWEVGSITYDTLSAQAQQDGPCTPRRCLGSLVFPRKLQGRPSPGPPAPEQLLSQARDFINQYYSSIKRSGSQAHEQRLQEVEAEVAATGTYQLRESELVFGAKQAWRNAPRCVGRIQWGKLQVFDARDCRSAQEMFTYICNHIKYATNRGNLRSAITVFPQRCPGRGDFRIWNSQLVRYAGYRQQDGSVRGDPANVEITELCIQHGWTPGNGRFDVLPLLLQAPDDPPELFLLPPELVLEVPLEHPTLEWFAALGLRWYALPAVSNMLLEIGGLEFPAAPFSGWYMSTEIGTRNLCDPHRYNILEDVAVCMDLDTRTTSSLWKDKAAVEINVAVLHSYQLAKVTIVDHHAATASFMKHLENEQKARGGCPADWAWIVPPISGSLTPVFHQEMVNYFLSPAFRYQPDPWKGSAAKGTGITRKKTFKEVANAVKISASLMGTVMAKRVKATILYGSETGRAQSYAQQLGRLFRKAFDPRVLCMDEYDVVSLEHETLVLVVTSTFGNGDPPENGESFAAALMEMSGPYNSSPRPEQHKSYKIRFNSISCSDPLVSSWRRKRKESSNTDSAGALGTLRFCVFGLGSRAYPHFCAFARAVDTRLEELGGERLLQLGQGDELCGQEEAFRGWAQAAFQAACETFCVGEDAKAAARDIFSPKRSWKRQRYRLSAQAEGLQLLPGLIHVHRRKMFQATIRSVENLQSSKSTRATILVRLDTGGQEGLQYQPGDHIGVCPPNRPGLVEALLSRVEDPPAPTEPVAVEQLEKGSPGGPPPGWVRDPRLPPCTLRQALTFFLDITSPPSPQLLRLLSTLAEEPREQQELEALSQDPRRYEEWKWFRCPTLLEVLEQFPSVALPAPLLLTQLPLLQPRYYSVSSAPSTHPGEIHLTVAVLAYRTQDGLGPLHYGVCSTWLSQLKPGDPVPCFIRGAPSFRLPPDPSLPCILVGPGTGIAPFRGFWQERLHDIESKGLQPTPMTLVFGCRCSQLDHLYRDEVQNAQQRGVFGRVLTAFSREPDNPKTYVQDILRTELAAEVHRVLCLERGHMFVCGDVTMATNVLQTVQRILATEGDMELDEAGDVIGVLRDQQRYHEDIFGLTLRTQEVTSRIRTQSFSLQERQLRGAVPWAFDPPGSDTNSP

[3] = molecular target: T3, Nitric oxide synthase, inducible (Mus musculus, UniProt P29477); assay: Tested to inhibit the conversion of [3H]L-arginine to [3H]L-citrulline catalyzed by inducible NOS from mouse macrophage J774 cells at concentration below 100 uM; No significant inhibition; type: cell-based
T3 sequence (P29477 whole entry): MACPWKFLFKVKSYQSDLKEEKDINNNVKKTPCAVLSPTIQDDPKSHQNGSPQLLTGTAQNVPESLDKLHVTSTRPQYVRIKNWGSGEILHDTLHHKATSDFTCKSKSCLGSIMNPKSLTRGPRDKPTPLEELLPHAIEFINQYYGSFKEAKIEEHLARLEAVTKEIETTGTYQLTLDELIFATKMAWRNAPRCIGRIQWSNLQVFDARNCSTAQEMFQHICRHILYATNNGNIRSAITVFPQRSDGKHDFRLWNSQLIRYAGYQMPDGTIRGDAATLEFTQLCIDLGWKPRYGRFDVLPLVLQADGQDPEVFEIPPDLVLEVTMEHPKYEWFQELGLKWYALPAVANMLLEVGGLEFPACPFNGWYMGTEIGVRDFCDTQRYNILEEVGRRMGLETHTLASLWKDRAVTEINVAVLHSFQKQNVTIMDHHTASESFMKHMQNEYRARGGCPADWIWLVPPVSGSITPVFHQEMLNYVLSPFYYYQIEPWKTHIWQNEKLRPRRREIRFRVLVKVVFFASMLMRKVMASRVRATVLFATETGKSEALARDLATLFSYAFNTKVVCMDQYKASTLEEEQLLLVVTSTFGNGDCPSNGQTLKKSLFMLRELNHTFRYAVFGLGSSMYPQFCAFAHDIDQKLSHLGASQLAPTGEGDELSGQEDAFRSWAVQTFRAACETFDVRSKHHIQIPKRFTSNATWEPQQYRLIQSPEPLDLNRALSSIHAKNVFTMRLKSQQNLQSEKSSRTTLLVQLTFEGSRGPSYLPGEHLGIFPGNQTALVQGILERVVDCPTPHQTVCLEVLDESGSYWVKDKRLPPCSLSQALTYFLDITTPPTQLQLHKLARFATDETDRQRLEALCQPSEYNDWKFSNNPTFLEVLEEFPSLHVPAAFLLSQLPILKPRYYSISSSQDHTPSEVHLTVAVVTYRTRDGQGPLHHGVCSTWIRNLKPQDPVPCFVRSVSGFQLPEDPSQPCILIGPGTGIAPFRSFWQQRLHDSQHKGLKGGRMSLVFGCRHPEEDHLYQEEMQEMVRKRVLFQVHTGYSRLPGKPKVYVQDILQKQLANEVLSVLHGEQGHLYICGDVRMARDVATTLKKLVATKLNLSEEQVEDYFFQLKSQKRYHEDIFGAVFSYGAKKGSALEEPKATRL

Nitric oxide synthase 1 [4] = molecular target: T4, Nitric oxide synthase 1 (Rattus norvegicus, UniProt P29476); assay: Tested to inhibit the conversion of [3H]L-arginine to [3H]L-citrulline catalyzed by neuronal NOS from rat cerebellum.; type: tissue-based
[5] = molecular target: T1, Nitric oxide synthase, inducible; assay: Tested to inhibit the conversion of [3H]L-arginine to [3H]L-citrulline catalyzed by inducible NOS from human DLD-1 cells.; type: cell-based
Nitric oxide synthase 3 [6] = molecular target: T2, Nitric oxide synthase 3; assay: Tested to inhibit the conversion of [3H]L-arginine to [3H]L-citrulline catalyzed by endothelial NOS from human umbilical vein endothelial cells at concentration below 100 uM; No significant inhibition; type: cell-based; conditions: endothelial cell
[7] = molecular target: T3, Nitric oxide synthase, inducible; assay: Tested to inhibit the conversion of [3H]L-arginine to [3H]L-citrulline catalyzed by inducible NOS from mouse macrophage J774 cells; type: cell-based
Nitric oxide synthase 1 [8] = molecular target: T4, Nitric oxide synthase 1; assay: Tested to inhibit the conversion of [3H]L-arginine to [3H]L-citrulline catalyzed by neuronal NOS from rat cerebellum at concentration below 100 uM; No significant inhibition

T4 sequence (P29476 whole entry): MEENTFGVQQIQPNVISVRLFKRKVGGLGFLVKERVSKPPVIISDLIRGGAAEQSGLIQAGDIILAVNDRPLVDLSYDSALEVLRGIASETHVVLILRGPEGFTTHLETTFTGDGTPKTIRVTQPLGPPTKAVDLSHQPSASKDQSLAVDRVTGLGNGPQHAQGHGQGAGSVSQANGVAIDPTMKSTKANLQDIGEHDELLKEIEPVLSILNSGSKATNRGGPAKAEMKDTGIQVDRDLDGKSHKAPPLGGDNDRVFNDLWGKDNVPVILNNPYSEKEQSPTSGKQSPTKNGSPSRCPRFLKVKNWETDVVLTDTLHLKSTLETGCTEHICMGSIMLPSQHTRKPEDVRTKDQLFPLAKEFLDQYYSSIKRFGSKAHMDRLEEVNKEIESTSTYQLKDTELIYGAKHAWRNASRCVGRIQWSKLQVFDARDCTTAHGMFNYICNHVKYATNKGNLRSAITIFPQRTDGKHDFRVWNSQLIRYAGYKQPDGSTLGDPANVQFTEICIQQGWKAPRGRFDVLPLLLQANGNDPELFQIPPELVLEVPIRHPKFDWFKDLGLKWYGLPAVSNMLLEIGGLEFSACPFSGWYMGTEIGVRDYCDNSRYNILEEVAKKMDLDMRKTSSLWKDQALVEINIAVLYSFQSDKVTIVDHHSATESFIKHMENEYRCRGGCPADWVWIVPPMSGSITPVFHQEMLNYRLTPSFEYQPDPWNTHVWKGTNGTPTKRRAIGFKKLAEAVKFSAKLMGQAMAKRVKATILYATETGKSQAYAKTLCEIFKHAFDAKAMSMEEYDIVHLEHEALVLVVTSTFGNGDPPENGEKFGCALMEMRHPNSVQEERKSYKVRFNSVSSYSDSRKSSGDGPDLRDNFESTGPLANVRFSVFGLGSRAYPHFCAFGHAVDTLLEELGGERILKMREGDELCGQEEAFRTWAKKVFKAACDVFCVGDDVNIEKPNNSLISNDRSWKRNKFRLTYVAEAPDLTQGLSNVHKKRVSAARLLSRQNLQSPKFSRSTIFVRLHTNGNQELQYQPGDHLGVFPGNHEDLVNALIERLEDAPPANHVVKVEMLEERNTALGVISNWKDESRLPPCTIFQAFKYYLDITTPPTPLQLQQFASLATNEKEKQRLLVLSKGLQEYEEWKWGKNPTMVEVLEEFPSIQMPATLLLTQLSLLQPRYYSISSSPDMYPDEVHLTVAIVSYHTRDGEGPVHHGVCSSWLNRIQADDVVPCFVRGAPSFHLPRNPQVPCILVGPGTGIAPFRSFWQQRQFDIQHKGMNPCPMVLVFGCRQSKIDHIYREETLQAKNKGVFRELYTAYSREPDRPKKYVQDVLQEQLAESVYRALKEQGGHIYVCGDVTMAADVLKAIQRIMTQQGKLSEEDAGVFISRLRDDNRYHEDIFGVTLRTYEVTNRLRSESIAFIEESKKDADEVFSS
T1 sequence (P35228 whole entry): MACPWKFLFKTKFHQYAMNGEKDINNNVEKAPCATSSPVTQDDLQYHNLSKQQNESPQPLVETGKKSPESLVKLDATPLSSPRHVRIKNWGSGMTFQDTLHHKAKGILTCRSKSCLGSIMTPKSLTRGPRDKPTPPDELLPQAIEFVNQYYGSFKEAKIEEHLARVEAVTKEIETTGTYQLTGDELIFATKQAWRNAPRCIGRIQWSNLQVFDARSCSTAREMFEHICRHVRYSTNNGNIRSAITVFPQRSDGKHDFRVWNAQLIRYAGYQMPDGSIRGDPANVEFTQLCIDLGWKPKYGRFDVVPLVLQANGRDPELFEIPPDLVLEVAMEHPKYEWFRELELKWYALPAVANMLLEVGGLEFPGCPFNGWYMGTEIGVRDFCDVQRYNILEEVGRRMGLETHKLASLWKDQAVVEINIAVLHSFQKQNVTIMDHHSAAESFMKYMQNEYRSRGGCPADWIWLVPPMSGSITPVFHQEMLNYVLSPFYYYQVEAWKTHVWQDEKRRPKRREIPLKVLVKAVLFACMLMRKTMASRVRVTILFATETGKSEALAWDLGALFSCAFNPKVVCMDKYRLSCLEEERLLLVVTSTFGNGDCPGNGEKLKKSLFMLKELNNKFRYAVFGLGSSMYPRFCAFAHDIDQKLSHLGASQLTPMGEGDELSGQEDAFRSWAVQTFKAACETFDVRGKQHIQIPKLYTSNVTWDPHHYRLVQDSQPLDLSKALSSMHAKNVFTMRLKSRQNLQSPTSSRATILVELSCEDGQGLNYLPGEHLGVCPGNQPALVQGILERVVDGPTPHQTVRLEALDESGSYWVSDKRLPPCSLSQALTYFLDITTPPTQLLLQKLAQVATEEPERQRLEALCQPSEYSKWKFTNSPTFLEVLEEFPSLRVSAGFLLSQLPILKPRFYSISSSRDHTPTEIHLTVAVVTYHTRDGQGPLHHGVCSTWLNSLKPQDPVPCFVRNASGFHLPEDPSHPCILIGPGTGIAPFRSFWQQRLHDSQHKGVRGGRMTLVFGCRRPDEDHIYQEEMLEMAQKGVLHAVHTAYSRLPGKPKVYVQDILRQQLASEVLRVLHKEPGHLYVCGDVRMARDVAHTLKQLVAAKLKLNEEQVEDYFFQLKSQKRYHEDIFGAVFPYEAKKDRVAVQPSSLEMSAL

## CNn1c(N)nc2ccccc21
[1]
  IC50: Not Active
Nitric oxide synthase 3 [2]
  IC50: Not Active
[3]
  IC50: Not Active
Nitric oxide synthase 1 [4]
  IC50: 5.8 µM

## Nc1nc2ccccc2n1N
[5]
  IC50: 25 µM
Nitric oxide synthase 3 [6]
  IC50: Not Active
[7]
  IC50: 31 µM
Nitric oxide synthase 1 [4]
  IC50: 77 µM

## O=[N+]([O-])c1cccc2cn[nH]c12 [7-NITROINDAZOLE]
[5]
  IC50: 24 µM
[7]
  IC50: 20 µM

## N=C(N)NN [PIMAGEDINE]
[5]
  IC50: 54 µM
Nitric oxide synthase 3 [6]
  IC50: Not Active
[7]
  IC50: 9 µM
Nitric oxide synthase 1 [8]
  IC50: Not Active
